Assay results reported in patent US6916844B2, “Hydroxy pyranone derivative and preparation method thereof” (Amorepacific Corporation, priority 2002, dated 2005).

Experiments:
[1] = test system: Human fibroblasts; assay: Effect on biosynthesis of collagen (procollagen type (I) ELISA); format: cell-based; conditions: 10^-4 M, 24 hours, relative to untreated control group = 100
Description: The effect of the hydroxy pyranone derivatives obtained in Examples 1˜6 on biosynthesis of collagen was compared with those of retinol and retinoic acid.
Human fibroblasts were seeded into a 24-well plate to a density of 10^5 cells/well and then cultured to 90% of growth. The plate was washed with PBS (phosphate buffered saline) and treated with test samples at a concentration of 10^−4M, and then incubated in a CO2 incubator for 24 hours. From its supernatant, procollagen production was measured with procollagen type (I) ELISA kit. The biosynthesis of collagen was evaluated as a relative value compared with that of the control group, which is not treated with sample and of which the value of biosyntheis of collagen was set to be 100.

[2] = test system: Human fibroblasts; assay: Collagenase-inhibiting effect (collagenase expression, ELISA kit); format: cell-based; conditions: 10^-4 M, 24 hours, relative to untreated control group = 100
Description: The collagenase-inhibiting effect of hydroxy pyranone derivatives obtained in Examples 1˜6 was compared with those of retinol and retinoic acid.
Human fibroblasts were cultured in Dulbecco's Modified Eagle's Medium (DMEM) supplemented with 2.5% fetal bovine serum. The fibroblasts were seeded into a 96-well microtiter plate to a density of 5,000 cells/well, and then cultured to 70˜80% of growth. The plate was treated with test samples at a concentration of 10^−4M for 24 hours, then the cultured medium and the cells were raked up and recovered. From the recovered culture, collagenase production was measured with collagenase kit (Catalog #: RPN 2610) commercialized by Amersham Pharmacia Biotech. First, the recovered culture was added into a 96-well plate wherein primary collagenase antibodies were uniformly spread, and then antigen-antibody reaction was performed in an incubator for 3 hours. Later, secondary collagenase antibodies bonded with chromophore were added to the 96-well plate and reacted for 15 minutes. Then, color former was added thereto in order to induce development at the room temperature for 15 minutes, and 1M of sulfuric acid was added to stop the reaction. The reaction solution became yellow, and the color density depends on the progress of the reaction. The absorbance of the yellow 96-well plate was measured at 405 nm with absorptiometer. The expression of collagenase was calculated by the following equation 1. No sample was treated in the control group.
[Equation 1] The expression of collagenase (%)=[(Absorbance of test group)/(Absorbance of control group)]×100
The expression of collagenase was evaluated as a relative value compared with that of the control group of which the expression of collagenase was set to be 100.

[3] = test system: rabbits; assay: Primary skin irritation test on animals (Draize P.I.I.); format: in vivo; conditions: 1% in 1,3-butylene glycol:ethanol=7:3, 0.5 ml, observed 24 and 72 hours later
Description: This test was performed for six (6) healthy male rabbits whose hairs on both sides of the backs were cut. The compounds of Examples 1˜6 were dissolved in 1,3-butylene glycol:ethanol=7:3, to obtain 1% concentration of test samples. 0.5 ml of each test samples were applied to right side area of 2.5 cm×2.5 cm. No sample was treated on left side as a control. 24 hours and 72 hours later, skin abnormality such as erythema, crust and edema was observed. Based on the score of skin response, skin irritation was estimated according to Draize's P.I.I. (Primary Irritation Index) and compared with that of retinoic acid.

[4] = test system: white guinea pigs; assay: Phototoxicity test; format: in vivo; conditions: 1% (w/v) solution, UVA 15 J/cm^2, observed at 24, 48 and 72 hours; for Phototoxic index: below 0.5 = no phototoxicity
Description: This test was performed for ten (10) white guinea pigs whose hairs on both sides of the backs were cut, and fixed. On the back of the guinea pig, six (6) test sites measuring 2.5 cm×2.5 cm, three (3) per each side, were sectioned. Right sites were prepared as controls with no irradiation (UV non-irradiation sites) and left sites were irradiated (UV irradiation sites). Vehicle (1,3-butylene glycol:ethanol=7:3) was used as a negative control, and 0.1% concentration of 8-MOP (methoxypsoralene) was used as a positive control; and 1% (w/v) solutions of the compounds of Examples 1˜6 were applied to either site with an amount of […] for each site. 30 minutes later, right sites were shielded with aluminum foil and UVA(320˜380 nm) was irradiated at a distance of about 10 cm therefrom with Waldmann to the final energy of 15 J/cm^2. After 24, 48 and 72 hours elapsed, skin response of guinea pig was observed. Erythema and edema were scored from 0 to 4 points as shown in the Table 3, and skin response was evaluated by summing the scores. Maximum scores were selected when measured on each elapsed time, i.e. 24, 48 and 72 hours, and irritation index was calculated according to the following equation 2. Then, phototoxic index was calculated according to the following equation 3.
[Equation 2] Irritation index=(Maximum of erythema+Maximum of edema)/Number of animals [Equation 3] Phototoxic index=(Irritation index of UV irradiation site)−(Irritation index of UV non-irradiation site)

[5] = test system: healthy females and males; assay: Human patch test; format: in vivo; conditions: 1% in patch base; for Average Response (n = 30): calculated by equation 4, below 1 = no irritation; for Number of the subjected showing response, 24 hours later, − (No visible response) / Number of the subjected showing response, 24 hours later, ± (Mild erythema) / Number of the subjected showing response, 24 hours later, + (Intense erythema) / Number of the subjected showing response, 24 hours later, + + (Intense erythema with edema) / Number of the subjected showing response, 24 hours later, + + + (Intense erythema with edema and vesicle): n = 30, 24 hours later; for Number of the subjected showing response, 24 hours later, − (No visible response) / Number of the subjected showing response, 48 hours later, − (No visible response): grade 0; for Number of the subjected showing response, 24 hours later, ± (Mild erythema) / Number of the subjected showing response, 48 hours later, ± (Mild erythema): grade 1; for Number of the subjected showing response, 24 hours later, + (Intense erythema) / Number of the subjected showing response, 48 hours later, + (Intense erythema): grade 2; for Number of the subjected showing response, 24 hours later, + + (Intense erythema with edema) / Number of the subjected showing response, 48 hours later, + + (Intense erythema with edema): grade 3; for Number of the subjected showing response, 24 hours later, + + + (Intense erythema with edema and vesicle) / Number of the subjected showing response, 48 hours later, + + + (Intense erythema with edema and vesicle): grade 4; for Number of the subjected showing response, 48 hours later, − (No visible response) / Number of the subjected showing response, 48 hours later, ± (Mild erythema) / Number of the subjected showing response, 48 hours later, + (Intense erythema) / Number of the subjected showing response, 48 hours later, + + (Intense erythema with edema) / Number of the subjected showing response, 48 hours later, + + + (Intense erythema with edema and vesicle): n = 30, 48 hours later
Description: This test was performed for thirty (30) healthy females and males aged on average 24.8 years and having no experience of hypersensitivity, according to method of CTFA Guideline (The Cosmetic, Toiletry and Fragrance Association. Inc. Washington, D.C., 20023, 1991). Each compound of Examples 1˜6 was dissolved in patch base having the composition of Table 6 to be 1% concentration as for test materials, and 20 μl of each test materials was dropped into a Finn chamber respectively, then attached to the forearm of the subject and fixed with a micropore tape. After 24 hours of patching, the patches were removed and the test sites were marked with marking pen. The observations of the test sites were made after 24 and 48 hours from the patching.
The average response of Table 8 was calculated by the following equation 4. [formula]

| Compound | Biosynthesis of collagen (%) [1] [%] | Expression of collagenase (%) [2] [%] | Evaluation (skin irritation) [3] | P. I. I. (Primary Irritation Index) [3] | Evaluation (phototoxicity) [4] | Phototoxic index [4] | Average Response (n = 30) [5] | Number of the subjected showing response, 24 hours later, − (No visible response) [5] | Number of the subjected showing response, 24 hours later, ± (Mild erythema) [5] | Number of the subjected showing response, 24 hours later, + (Intense erythema) [5] | Number of the subjected showing response, 24 hours later, + + (Intense erythema with edema) [5] | Number of the subjected showing response, 24 hours later, + + + (Intense erythema with edema and vesicle) [5] | Number of the subjected showing response, 48 hours later, − (No visible response) [5] | Number of the subjected showing response, 48 hours later, ± (Mild erythema) [5] | Number of the subjected showing response, 48 hours later, + (Intense erythema) [5] | Number of the subjected showing response, 48 hours later, + + (Intense erythema with edema) [5] | Number of the subjected showing response, 48 hours later, + + + (Intense erythema with edema and vesicle) [5] |
| --- | --- | --- | --- | --- | --- | --- | --- | --- | --- | --- | --- | --- | --- | --- | --- | --- | --- |
| O=c1cc(/C=C/c2ccc3c(c2)OCCO3)occ1O [Compound of Ex. 6, 2-((1E)-2-(2H,3H-benzo [3,4-e] 1,4-dioxan-6-yl)vinyl)-5-hydroxy-4H-pyran-4-one] | 115 | 84 | No irritation | 0.315 | No phototoxicity | 0 | 0.00 | 30 | 0 | 0 | 0 | 0 | 30 | 0 | 0 | 0 | 0 |
| ((3E)-4-(2H,3H-benzo [3,4-d] 1,3-dioxolan-5-yl)-2-oxobut-3-enyloxy)-5-hydroxy-4H-pyran-4-one [Compound of Ex. 3] | 123 | 78 | No irritation | 0.375 | No phototoxicity | 0 | 0.00 | 30 | 0 | 0 | 0 | 0 | 30 | 0 | 0 | 0 | 0 |
